In brackets after ≈: the same amount, converted by molar mass. Read-outs that look alike come from different tables or passages of the source.
Legend:
[1] = system: Escherichia coli NIHJ JC-2; assay: In vitro antibacterial activity (MIC), Escherichia coli NIHJ JC-2; format: cell-based; conditions: NIHJJC2, read-out: Minimum inhibitory concentration (MIC)
[2] = system: Staphylococcus aureus 50774; assay: Effect on systemic infection in mice; format: in vivo, mice (male Std-ddy strain); conditions: 168 h; Staphylococcus aureus 50774 i.p. infection; oral, twice (immediately and 6 h after infection); survival 7 days after infection
Protocol: The effects (ED50; mg/kg) on systemic infection in mice were determined as follows: Male Std-ddy strain mice (weighing about 20 g) were infected with each of the pathogenic bacteria shown in Table 2 by administering 5×10^3 viable cells intraperitoneally to each mouse. Then, a suspension of each test compound in 0.4% carboxymethylcellulose was orally administered twice, i.e., immediately after infection and 6 hours after infection. Seven days after infection, the ED50 value was calculated from the survival rate of each mouse group by probit analysis.
As a reference compound, there was used enoxacin [1-ethyl-6-fluoro-1,4-dihydro-4-oxo-7-(1-piperazinyl-1,8-naphthyridine-3-carboxylic acid; hereinafter abbreviated as ENX] that is an excellent antibacterial agent currently on the market.
The test compounds shown in the following Tables 1 and 2 are identified by the respective numbers of the Examples which will be given later.

[3] = system: Staphylococcus aureus MS16405; assay: In vitro antibacterial activity (MIC), Staphylococcus aureus MS16405; format: cell-based
[4] = system: Pseudomonas aeruginosa No 12; assay: In vitro antibacterial activity (MIC), Pseudomonas aeruginosa No 12; format: cell-based; conditions: NO12, read-out: Minimum inhibitory concentration (MIC)
[5] = system: Staphylococcus aureus 50774; assay: In vitro antibacterial activity (MIC), Staphylococcus aureus 50774; format: cell-based; conditions: Staphylococcus aureus 50774; read-out: Minimum inhibitory concentration (MIC)
[6] = Staphylococcus aureus, MS16405, read-out: Minimum inhibitory concentration (MIC)
[7] = Staphylococcus aureus MS16405, read-out: Minimum inhibitory concentration (MIC)

SMILES | MIC [1] | ED50 [2] | MIC [3, 6] | MIC [4] | MIC [5] | MIC [3, 7]
COc1c(N2C[C@H](N)[C@H]3OCC[C@H]32)c(F)cc2c(=O)c(C(=O)O)cn(C3CC3)c12 (relative stereo) [Example 1, 7-[(1R*,5R*,8S*)-8-amino-2-oxa-6-azabicyclo[3.3.0]oct-6-yl]-1-cyclopropyl-6-fluoro-1,4-dihydro-8-methoxy-4-oxoquinoline-3-carboxylic acid] | 0.013 µg/mL (≈ 0.0322 µM) | 0.36 mg/kg | 0.39 µg/mL (≈ 0.967 µM) | 0.39 µg/mL (≈ 0.967 µM) | ≤ 0.003 µg/mL | 
COc1c(N2C[C@H](N)[C@H]3OCC[C@H]32)c(F)cc2c(=O)c(C(=O)O)cn([C@@H]3C[C@@H]3F)c12 (relative stereo) [Example 2, 7-[(1R*,5R*,8S*)-8-amino-2-oxa-6-azabicyclo[3.3.0]oct-6-yl]-6-fluoro-1-[(1R,2S)-2-fluorocyclopropyl]-1,4-dihydro-8-methoxy-4-oxoquinoline-3-carboxylicacid] | 0.013 µg/mL (≈ 0.0308 µM) | 0.383 mg/kg | 0.39 µg/mL (≈ 0.925 µM) | 0.39 µg/mL (≈ 0.925 µM) | 0.006 µg/mL (≈ 0.0142 µM) | 
Nc1c(F)c(N2C[C@H](N)[C@H]3OCC[C@H]32)c(F)c2c1c(=O)c(C(=O)O)cn2C1CC1 (relative stereo) [Example 3, 5-Amino-7-[(1R*,5R*,8S*)-8-amino-2-oxa-6-azabicyclo[3.3.0]oct-6-yl]-1-cyclopropyl-6,8-difluoro-1,4-dihydro-4-oxoquinoline-3-carboxylic acid] | 0.006 µg/mL (≈ 0.0148 µM) | 0.398 mg/kg |  | 0.2 µg/mL (≈ 0.492 µM) | 0.013 µg/mL (≈ 0.032 µM) | 1.56 µg/mL (≈ 3.84 µM)
COc1c(N2C[C@H](N)[C@H]3OCC[C@H]32)c(F)c(N)c2c(=O)c(C(=O)O)cn(C3CC3)c12 (relative stereo) [Example 4] | 0.025 µg/mL (≈ 0.0597 µM) | 0.246 mg/kg | 0.39 µg/mL (≈ 0.932 µM) | 0.78 µg/mL (≈ 1.86 µM) | 0.006 µg/mL (≈ 0.0143 µM) | 
COc1c(N2C[C@H](N)[C@H]3OCC[C@H]32)c(F)c(C)c2c(=O)c(C(=O)O)cn(C3CC3)c12 (relative stereo) [Example 5] | 0.025 µg/mL (≈ 0.0599 µM) | 0.257 mg/kg |  | 0.78 µg/mL (≈ 1.87 µM) | ≤ 0.003 µg/mL | 0.39 µg/mL (≈ 0.934 µM)
CN[C@H]1CN(c2c(F)cc3c(=O)c(C(=O)O)cn(C4CC4)c3c2OC)[C@@H]2CCO[C@H]12 (relative stereo) [Example 6] | 0.025 µg/mL (≈ 0.0599 µM) | 0.292 mg/kg |  | 1.56 µg/mL (≈ 3.74 µM) | 0.025 µg/mL (≈ 0.0599 µM) | 1.56 µg/mL (≈ 3.74 µM)
CN[C@H]1CN(c2c(F)c(C)c3c(=O)c(C(=O)O)cn(C4CC4)c3c2OC)[C@@H]2CCO[C@H]12 (relative stereo) [Example 8] | 0.2 µg/mL (≈ 0.464 µM) | 0.345 mg/kg |  | 1.56 µg/mL (≈ 3.62 µM) | 0.013 µg/mL (≈ 0.0301 µM) | 3.13 µg/mL (≈ 7.25 µM)
CN[C@H]1CN(c2c(F)c(N)c3c(=O)c(C(=O)O)cn(C4CC4)c3c2OC)[C@@H]2CCO[C@H]12 (relative stereo) [Example 9] | 0.05 µg/mL (≈ 0.116 µM) | 0.415 mg/kg |  | 1.56 µg/mL (≈ 3.61 µM) | 0.025 µg/mL (≈ 0.0578 µM) | 1.56 µg/mL (≈ 3.61 µM)
COc1c(N2C[C@H](N)[C@H]3OCCC[C@H]32)c(F)cc2c(=O)c(C(=O)O)cn(C3CC3)c12 (relative stereo) [Example 10] | 0.1 µg/mL (≈ 0.24 µM) | 0.465 mg/kg | 0.39 µg/mL (≈ 0.934 µM) | 3.13 µg/mL (≈ 7.5 µM) | 0.013 µg/mL (≈ 0.0311 µM) | 
N[C@H]1CN(c2nc3c(cc2F)c(=O)c(C(=O)O)cn3-c2ccc(F)cc2F)[C@@H]2CCO[C@@H]21 (relative stereo) [Example 11] | 0.25 µg/mL (≈ 0.56 µM) | 0.579 mg/kg |  | 0.39 µg/mL (≈ 0.874 µM) | 0.013 µg/mL (≈ 0.0291 µM) | 
COc1c(N2C[C@H](N)[C@H]3OCCC[C@H]32)c(F)c(N)c2c(=O)c(C(=O)O)cn(C3CC3)c12 (relative stereo) [Example 12] | 0.1 µg/mL (≈ 0.231 µM) | 0.715 mg/kg |  | 1.56 µg/mL (≈ 3.61 µM) | 0.013 µg/mL (≈ 0.0301 µM) | 0.39 µg/mL (≈ 0.902 µM)
COc1c(N2C[C@@H](N)[C@H]3OCC[C@H]32)c(F)c(N)c2c(=O)c(C(=O)O)cn(C3CC3)c12 (relative stereo) [Example 13] | 0.05 µg/mL (≈ 0.119 µM) | 0.778 mg/kg |  | 0.78 µg/mL (≈ 1.86 µM) | 0.013 µg/mL (≈ 0.0311 µM) | 1.56 µg/mL (≈ 3.73 µM)
N[C@H]1CN(c2c(F)cc3c(=O)c(C(=O)O)cn(C4CC4)c3c2OC(F)F)[C@@H]2CCO[C@@H]21 (relative stereo) [Example 14] | 0.025 µg/mL (≈ 0.0569 µM) | ≤ 0.78 mg/kg |  | 1.56 µg/mL (≈ 3.55 µM) | 0.025 µg/mL (≈ 0.0569 µM) | 1.56 µg/mL (≈ 3.55 µM)
CN[C@H]1CN(c2nc3c(cc2F)c(=O)c(C(=O)O)cn3-c2ccc(F)cc2F)[C@@H]2CCO[C@H]12 (relative stereo) [Example 17] | 0.1 µg/mL (≈ 0.217 µM) | 0.78 mg/kg |  | 0.78 µg/mL (≈ 1.69 µM) | 0.05 µg/mL (≈ 0.109 µM) | 
CN[C@H]1CN(c2c(F)cc3c(=O)c(C(=O)O)cn(C4CC4)c3c2Cl)[C@@H]2CCO[C@H]12 (relative stereo) [Example 20] | 0.05 µg/mL (≈ 0.119 µM) |  |  | 1.56 µg/mL (≈ 3.7 µM) | 0.1 µg/mL (≈ 0.237 µM) | 3.13 µg/mL (≈ 7.42 µM)

— patent publication US6017911A, “Pyridonecarboxylic acid derivatives and intermediates for the synthesis thereof” (Dainippon Pharmaceutical Co., Ltd., priority 1996, dated 2000)
